Where only a bound is given, the exact number is not on record here.

Experiment [1] addresses Ribosomal protein S6 kinase alpha-1 (Homo sapiens, UniProt Q15418). Kind of experiment: Selectivity interaction (KinomeScan (DiscoverX)) EUB0000595a RPS6KA1. The settings on record: at 10 µM.
The target of experiment [2] is T1, Tyrosine-protein kinase Mer (Homo sapiens) (UniProt Q12866).
T1 sequence (whole entry): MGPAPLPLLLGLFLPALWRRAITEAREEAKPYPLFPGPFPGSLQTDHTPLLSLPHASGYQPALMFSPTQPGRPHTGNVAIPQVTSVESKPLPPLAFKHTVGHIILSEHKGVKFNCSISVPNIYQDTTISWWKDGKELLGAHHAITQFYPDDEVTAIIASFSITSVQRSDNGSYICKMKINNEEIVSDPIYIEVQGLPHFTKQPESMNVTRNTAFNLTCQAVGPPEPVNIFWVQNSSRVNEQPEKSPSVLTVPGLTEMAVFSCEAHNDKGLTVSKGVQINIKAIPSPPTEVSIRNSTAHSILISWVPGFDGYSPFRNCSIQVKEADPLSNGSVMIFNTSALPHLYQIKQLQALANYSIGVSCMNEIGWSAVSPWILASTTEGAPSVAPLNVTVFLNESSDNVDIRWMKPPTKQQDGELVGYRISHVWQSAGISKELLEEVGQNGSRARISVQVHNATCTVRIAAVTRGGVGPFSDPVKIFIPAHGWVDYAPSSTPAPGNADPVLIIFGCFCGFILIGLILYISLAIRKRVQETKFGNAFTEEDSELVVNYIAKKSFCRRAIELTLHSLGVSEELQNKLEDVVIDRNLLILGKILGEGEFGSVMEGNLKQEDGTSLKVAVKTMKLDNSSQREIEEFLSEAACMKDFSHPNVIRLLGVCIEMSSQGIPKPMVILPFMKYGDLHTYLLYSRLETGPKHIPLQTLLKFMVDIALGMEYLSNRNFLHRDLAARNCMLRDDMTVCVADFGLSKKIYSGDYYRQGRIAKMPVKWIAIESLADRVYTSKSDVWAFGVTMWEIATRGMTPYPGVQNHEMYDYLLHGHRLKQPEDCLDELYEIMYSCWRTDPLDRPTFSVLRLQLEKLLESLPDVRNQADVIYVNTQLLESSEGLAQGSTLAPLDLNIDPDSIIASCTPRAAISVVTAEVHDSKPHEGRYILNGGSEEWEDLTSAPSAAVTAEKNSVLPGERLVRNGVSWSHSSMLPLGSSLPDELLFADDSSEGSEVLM
Kind of experiment: Selectivity interaction (KinomeScan (DiscoverX)) EUB0000595a MERTK. Conditions: at 10 µM.

The target in experiment [3] is Protein kinase C eta type (Homo sapiens) (UniProt P24723). Kind of experiment: Selectivity interaction (KinomeScan (DiscoverX)) EUB0000595a PRKCH. The settings on record: at 10 µM.
Experiment [4] addresses Calcium/calmodulin-dependent protein kinase type 1G (Homo sapiens) (UniProt Q96NX5). The settings on record: at 10 µM.
The target in experiment [5] is Platelet-derived growth factor receptor beta (Homo sapiens, UniProt P09619). The settings on record: at 10 µM.
Experiment [6] concerns the target Mitogen-activated protein kinase 8 (Homo sapiens, UniProt P45983). Kind of experiment: Selectivity interaction (ActivX KiNativ screen (kinase selectivity in THP-1 cell lysates)) EUB0000639a MAPK8. It counts as subcellular. The settings on record: lysate.
Experiment [7] concerns the target Homeodomain-interacting protein kinase 2 (Homo sapiens, UniProt Q9H2X6). Kind of experiment: Selectivity interaction (KinomeScan (DiscoverX)) EUB0000045b HIPK2.
For experiment [8], the target named is Tyrosine-protein kinase Lck (Homo sapiens, UniProt P06239). Kind of experiment: Selectivity interaction (Ambit KINOMEscan and KiNATiv profiling in Jurkat cells) EUB0000090b LCK. Conditions: at 1 µM. The class given is cell-based.
Experiment [9] has as its target T2, Protein kinase C iota type (Homo sapiens) (UniProt P41743).
T2 sequence (whole entry): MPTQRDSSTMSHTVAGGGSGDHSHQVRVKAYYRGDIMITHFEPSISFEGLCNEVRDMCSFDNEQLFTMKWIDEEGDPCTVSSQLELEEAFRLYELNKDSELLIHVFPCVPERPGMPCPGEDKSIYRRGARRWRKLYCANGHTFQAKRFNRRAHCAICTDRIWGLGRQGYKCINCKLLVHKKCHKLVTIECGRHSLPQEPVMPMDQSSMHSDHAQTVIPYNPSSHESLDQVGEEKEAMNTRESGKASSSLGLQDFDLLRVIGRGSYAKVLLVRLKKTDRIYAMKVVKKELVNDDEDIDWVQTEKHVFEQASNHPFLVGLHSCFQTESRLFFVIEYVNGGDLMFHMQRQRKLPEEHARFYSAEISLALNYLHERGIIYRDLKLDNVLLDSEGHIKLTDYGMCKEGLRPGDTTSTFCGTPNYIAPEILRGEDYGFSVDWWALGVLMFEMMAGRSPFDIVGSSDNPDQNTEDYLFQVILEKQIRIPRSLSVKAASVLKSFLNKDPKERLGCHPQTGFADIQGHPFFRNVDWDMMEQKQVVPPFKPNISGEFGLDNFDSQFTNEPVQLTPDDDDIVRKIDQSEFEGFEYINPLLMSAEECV
Kind of experiment: Selectivity interaction (KinomeScan (DiscoverX)) EUB0001049a PRKCI. The settings on record: at 1 µM.

The target of experiment [10] is Kappa-type opioid receptor (Homo sapiens, UniProt P41145). The experiment is described as follows: Selectivity interaction (Panel of kinases, GPCRs, ion channels and transporters (enzymatic assay)) EUB0000223bCl OPRK1.
For experiment [11], the target named is Protein kinase C gamma type (Homo sapiens) (UniProt P05129). The experiment is described as follows: Selectivity interaction (Upstate Kinase Profiler service (Millipore)) EUB0000056c PRKCG. The settings on record: at 1 µM.
The nature of experiment [12]: Selectivity interaction (KinomeScan (DiscoverX)) EUB0000618a CDPK1. Conditions: at 10 µM.
Experiment [13] addresses T3, Serine/threonine-protein kinase Nek3 (Homo sapiens) (UniProt P51956).
T3 sequence (whole entry): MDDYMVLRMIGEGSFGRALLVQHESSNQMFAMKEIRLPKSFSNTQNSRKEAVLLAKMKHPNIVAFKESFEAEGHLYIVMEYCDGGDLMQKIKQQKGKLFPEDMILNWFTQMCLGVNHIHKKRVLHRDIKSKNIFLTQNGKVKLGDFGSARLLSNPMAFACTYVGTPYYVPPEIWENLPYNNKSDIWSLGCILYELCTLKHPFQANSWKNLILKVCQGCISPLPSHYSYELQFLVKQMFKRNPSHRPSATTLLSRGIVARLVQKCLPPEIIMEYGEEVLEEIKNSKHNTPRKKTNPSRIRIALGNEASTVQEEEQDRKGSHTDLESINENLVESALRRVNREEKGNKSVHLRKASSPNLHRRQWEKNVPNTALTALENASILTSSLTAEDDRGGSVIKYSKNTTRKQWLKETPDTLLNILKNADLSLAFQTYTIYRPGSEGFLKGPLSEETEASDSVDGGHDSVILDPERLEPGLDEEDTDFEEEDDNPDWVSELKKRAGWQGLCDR
The experiment is described as follows: Selectivity interaction (KinomeScan (DiscoverX)) EUB0000229b NEK3. The settings on record: at 10 µM.

Mitogen-activated protein kinase 8, sequence (P45983 whole entry): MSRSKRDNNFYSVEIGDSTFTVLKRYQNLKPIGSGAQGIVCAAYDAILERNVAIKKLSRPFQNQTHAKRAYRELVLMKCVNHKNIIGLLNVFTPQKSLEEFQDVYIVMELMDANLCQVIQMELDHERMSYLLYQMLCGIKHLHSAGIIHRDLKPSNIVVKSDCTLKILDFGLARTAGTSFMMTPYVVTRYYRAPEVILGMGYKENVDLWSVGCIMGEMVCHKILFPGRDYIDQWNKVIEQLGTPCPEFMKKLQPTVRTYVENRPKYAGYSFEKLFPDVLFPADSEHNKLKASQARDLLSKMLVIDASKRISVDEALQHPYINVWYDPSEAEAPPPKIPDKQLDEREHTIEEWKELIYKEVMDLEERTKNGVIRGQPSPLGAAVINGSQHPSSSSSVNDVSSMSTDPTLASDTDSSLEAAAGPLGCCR
Homeodomain-interacting protein kinase 2, sequence (Q9H2X6 whole entry, looked up): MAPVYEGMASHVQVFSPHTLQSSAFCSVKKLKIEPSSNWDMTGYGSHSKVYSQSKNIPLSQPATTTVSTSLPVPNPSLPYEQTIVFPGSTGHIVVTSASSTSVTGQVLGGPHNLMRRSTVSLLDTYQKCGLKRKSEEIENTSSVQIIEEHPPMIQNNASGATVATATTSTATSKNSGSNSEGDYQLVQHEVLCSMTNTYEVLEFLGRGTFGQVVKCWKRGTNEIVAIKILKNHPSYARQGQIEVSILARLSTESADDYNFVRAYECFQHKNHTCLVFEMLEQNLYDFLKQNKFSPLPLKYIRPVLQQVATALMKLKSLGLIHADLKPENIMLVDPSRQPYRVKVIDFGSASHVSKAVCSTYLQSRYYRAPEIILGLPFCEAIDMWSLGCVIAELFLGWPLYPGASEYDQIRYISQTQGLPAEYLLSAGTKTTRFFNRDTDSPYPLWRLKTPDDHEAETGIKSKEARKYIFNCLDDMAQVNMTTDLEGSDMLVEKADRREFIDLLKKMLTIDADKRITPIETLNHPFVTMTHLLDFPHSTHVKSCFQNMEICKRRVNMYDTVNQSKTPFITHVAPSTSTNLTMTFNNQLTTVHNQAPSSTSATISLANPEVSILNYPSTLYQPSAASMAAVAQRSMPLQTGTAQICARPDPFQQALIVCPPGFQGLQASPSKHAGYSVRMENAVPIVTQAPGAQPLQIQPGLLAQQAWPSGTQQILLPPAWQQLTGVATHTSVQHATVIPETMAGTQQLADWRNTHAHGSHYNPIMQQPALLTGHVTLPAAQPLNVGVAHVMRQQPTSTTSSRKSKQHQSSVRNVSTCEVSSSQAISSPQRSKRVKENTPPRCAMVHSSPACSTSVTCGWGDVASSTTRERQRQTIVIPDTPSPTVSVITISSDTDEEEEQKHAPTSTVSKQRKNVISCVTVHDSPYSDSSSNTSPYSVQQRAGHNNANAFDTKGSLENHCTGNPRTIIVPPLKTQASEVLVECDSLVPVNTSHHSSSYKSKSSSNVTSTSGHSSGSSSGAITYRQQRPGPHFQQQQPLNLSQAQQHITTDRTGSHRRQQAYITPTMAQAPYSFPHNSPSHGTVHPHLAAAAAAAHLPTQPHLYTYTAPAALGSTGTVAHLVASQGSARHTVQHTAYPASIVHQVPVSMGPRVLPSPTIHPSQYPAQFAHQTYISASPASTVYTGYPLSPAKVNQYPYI
Ribosomal protein S6 kinase alpha-1, sequence (Q15418 whole entry): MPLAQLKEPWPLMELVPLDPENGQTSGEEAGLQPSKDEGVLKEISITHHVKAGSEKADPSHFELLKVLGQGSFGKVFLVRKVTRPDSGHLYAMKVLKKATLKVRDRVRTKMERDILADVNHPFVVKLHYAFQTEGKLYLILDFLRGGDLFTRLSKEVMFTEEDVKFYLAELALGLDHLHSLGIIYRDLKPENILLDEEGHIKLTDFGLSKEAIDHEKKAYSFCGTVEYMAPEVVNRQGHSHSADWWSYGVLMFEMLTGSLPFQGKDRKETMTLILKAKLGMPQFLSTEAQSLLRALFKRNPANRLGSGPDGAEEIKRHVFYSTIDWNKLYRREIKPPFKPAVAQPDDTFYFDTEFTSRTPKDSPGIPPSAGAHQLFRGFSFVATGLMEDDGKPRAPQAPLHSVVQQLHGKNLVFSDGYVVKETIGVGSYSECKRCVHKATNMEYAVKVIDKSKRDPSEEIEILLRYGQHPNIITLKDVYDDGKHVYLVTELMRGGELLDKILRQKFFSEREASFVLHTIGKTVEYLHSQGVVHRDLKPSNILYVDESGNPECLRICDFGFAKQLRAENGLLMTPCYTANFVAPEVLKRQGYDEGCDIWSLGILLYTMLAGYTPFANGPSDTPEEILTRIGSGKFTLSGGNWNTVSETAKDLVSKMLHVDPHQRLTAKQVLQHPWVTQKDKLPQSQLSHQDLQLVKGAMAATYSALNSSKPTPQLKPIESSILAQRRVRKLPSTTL
Protein kinase C eta type (Homo sapiens), sequence (P24723 whole entry): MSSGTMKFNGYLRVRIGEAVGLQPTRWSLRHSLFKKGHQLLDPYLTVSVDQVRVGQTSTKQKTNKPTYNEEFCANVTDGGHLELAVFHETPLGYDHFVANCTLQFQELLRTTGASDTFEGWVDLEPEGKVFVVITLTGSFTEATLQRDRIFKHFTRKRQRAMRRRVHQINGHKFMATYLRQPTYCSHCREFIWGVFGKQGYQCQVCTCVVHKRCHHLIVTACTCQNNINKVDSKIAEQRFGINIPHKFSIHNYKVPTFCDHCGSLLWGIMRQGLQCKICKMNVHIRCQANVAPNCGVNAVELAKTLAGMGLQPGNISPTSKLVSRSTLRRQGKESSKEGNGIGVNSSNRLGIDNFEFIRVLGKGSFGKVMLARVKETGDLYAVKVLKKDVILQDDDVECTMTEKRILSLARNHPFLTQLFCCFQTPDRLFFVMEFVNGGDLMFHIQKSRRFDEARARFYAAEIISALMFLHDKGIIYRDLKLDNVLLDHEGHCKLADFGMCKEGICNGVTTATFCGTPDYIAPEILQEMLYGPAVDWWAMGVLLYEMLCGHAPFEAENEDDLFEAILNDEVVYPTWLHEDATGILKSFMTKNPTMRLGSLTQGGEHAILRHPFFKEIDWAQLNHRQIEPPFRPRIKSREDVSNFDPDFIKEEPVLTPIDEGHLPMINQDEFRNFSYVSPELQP
Calcium/calmodulin-dependent protein kinase type 1G (Homo sapiens), sequence (Q96NX5 whole entry): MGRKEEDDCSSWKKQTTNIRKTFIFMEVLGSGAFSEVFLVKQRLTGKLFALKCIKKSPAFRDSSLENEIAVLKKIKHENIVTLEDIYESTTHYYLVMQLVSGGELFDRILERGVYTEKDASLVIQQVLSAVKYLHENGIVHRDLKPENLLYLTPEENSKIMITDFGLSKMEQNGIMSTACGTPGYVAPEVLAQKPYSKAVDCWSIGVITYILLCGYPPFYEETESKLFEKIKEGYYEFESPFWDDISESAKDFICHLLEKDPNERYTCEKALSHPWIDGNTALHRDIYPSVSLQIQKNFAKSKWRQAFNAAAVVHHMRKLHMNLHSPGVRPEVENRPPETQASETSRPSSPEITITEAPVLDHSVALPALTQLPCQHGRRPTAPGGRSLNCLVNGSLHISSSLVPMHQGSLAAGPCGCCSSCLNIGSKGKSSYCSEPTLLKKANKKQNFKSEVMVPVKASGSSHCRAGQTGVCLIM
Kappa-type opioid receptor, sequence (P41145 whole entry): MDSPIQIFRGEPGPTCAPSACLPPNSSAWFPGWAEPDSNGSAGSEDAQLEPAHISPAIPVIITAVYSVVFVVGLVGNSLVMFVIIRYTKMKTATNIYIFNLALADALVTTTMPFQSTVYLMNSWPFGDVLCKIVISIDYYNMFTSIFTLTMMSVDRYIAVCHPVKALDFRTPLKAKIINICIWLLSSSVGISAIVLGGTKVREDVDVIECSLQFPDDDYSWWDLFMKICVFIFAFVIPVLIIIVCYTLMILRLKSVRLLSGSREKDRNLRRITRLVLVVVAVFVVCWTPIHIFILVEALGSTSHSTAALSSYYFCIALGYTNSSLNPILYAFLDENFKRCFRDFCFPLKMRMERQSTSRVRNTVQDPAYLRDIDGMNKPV

As for `COCC(=O)NC/C=C/c1ccc2ncnc(Nc3ccc(Oc4ccc(C)nc4)c(C)c3)c2c1` [CP-724714], the % of control in [1] worked out at 73%; in experiment [2], 97%; in experiment [3], 100%. Take `CCN(CC)CCCCNc1ncc2cc(-c3cc(OC)cc(OC)c3)c(NC(=O)NC(C)(C)C)nc2n1`: the % of control in experiment [4] turned out to be 100%. With `Cc1cc([C@@H](C)Nc2ccccc2C(=O)O)c2nc(N3CCOCC3)cc(=O)n2c1` [AZD-6482], the % of control in experiment [5] came to 100%. Take `CC[C@@H]1[C@H](F)C(=O)N[C@@H]1COc1nccc2cc(C(N)=O)c(OC)cc12` [ZIMLOVISERTIB]: the % of inhibition was 13.3% in experiment [6] (at 0.01 µM); -1.4% in experiment [6] (at 0.04 µM); 1.6% in experiment [6] (at 0.2 µM); 27.7% in [6] (at 1 µM); 57.5% in experiment [6] (at 5 µM). Turning to `C=CC(=O)Nc1cc(-n2c(=O)ccc3cnc4ccc(-c5ccc(NS(C)(=O)=O)cc5)cc4c32)ccc1C`, the % of control in experiment [7] (at 1 µM) and in experiment [7] (at 10 µM) was 100% throughout. Consider `CN(C)C/C=C/C(=O)Nc1ccc(C(=O)N2CCCC(Nc3ncc(Cl)c(-c4c[nH]c5ccccc45)n3)C2)cc1` (stereo not drawn), for which, in experiment [8], the % of control is 84%. On to `COc1cc(Nc2nc(C)cc(-c3cnn4nc(OC)ccc34)n2)cc(C(F)(F)F)c1`, for which the % of control in experiment [9] amounted to 79%. The compound `COc1cc(C(=O)N2CC[C@@H](O)[C@@H](N)C2)cc2nc(-c3cc4ccccc4n3CC3CC3)n(C)c12` returned a pXC50 in experiment [10] of less than 4 M. Turning to `Cc1ccc(-c2ccc3c(ccc4sc5c(c43)NC[C@@H](C)NC5=O)n2)cn1`, the % of inhibition in experiment [11] came to 17%. As for `O[C@H]1CC[C@H](Nc2ncc3nc(Nc4c(F)cc(F)cc4F)n([C@H]4CCOC4)c3n2)CC1`, the % of control in [12] was found to be 1.5%. In turn, `COc1cc(N(C)c2ccnc3ccc(C(F)(F)F)cc23)cc(OC)c1OC` gave a % binding in [13] of 80%.
